Consider 32 compounds from patent US8410112B2, “Compounds useful as inhibitors of ATR kinase” (Vertex Pharmaceuticals Incorporated, priority 2008, dated 2013).

The target of the experiment is T1, full-length ATR (Homo sapiens, UniProt Q13535).
T1 construct: in the presence of 5 nM full-length ATR
T1 sequence (Q13535 whole entry): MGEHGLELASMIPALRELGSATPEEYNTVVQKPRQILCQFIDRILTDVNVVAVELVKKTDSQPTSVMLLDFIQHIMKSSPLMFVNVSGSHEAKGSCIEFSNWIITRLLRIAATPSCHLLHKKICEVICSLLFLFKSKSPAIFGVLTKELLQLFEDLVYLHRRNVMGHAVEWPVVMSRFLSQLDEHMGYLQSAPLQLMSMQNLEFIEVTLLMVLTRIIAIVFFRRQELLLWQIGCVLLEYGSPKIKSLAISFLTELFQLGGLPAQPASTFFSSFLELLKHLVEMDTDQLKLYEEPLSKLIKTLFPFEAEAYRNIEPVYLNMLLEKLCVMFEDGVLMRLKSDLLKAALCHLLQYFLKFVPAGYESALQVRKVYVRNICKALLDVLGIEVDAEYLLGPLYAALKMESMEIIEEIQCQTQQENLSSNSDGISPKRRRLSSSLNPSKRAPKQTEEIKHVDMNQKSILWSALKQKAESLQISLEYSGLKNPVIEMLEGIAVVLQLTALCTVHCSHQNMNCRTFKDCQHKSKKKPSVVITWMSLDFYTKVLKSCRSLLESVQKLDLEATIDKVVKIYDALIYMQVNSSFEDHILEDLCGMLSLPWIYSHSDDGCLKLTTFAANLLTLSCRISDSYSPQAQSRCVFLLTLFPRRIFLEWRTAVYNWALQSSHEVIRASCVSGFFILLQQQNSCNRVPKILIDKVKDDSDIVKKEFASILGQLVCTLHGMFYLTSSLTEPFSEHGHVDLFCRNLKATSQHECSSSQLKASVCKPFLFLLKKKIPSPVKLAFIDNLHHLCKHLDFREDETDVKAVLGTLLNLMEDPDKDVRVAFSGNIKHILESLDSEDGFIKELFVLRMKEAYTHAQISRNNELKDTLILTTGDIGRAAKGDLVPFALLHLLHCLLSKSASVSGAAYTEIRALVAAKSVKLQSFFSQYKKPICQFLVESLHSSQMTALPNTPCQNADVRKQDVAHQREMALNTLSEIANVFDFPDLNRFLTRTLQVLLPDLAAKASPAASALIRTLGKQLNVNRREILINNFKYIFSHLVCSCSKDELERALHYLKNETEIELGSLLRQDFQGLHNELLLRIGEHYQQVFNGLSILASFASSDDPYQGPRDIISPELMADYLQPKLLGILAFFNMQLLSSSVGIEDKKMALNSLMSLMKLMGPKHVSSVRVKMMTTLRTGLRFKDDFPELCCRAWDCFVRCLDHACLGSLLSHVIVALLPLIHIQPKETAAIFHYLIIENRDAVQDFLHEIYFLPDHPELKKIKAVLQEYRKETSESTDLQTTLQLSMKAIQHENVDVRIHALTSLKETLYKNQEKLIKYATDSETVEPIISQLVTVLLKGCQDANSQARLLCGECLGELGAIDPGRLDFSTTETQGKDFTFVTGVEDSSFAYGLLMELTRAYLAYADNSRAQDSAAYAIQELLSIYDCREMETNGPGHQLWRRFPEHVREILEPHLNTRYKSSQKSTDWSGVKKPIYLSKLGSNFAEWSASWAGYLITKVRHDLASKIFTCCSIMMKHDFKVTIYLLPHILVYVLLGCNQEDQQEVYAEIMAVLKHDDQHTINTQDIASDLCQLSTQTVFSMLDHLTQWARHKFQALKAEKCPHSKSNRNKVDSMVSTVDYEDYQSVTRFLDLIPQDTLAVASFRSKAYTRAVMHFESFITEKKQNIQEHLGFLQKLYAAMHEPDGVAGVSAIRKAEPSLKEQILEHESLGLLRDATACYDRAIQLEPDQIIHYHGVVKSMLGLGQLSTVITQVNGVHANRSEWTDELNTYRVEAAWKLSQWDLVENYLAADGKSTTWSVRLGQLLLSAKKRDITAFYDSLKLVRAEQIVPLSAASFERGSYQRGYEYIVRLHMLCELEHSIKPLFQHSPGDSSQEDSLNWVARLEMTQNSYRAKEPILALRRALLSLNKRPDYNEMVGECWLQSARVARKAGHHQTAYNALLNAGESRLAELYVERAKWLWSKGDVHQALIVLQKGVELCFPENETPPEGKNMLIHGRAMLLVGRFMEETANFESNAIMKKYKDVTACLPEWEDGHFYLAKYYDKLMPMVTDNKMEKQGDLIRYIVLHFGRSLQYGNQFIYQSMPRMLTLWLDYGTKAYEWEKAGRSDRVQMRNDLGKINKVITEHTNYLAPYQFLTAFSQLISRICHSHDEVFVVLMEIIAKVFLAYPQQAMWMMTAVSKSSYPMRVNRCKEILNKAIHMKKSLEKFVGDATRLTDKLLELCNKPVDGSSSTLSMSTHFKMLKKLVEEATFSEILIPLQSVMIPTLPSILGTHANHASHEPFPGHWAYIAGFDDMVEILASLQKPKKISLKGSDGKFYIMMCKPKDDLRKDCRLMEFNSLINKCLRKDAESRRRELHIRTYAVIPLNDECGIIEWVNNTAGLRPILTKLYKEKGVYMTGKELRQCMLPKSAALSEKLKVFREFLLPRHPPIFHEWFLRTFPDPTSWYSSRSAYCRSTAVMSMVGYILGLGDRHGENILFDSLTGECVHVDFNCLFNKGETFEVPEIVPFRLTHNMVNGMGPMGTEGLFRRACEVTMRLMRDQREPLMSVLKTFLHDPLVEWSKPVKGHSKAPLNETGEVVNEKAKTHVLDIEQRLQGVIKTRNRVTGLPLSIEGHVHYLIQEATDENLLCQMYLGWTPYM
Nature of the experiment: ATR Inhibition Assay (radioactive-phosphate incorporation). The class given is biochemical. To be noted: Ki(app); 5 nM full-length ATR, 10 μM ATP, 800 μM target peptide, 25° C. The protocol: Test compounds were screened for their ability to inhibit ATR kinase using a radioactive-phosphate incorporation assay. Assays were carried out in a mixture of 50 mM
Tris/HCl (pH 7.5), 10 mM MgCl2 and 1 mM DTT. Final substrate concentrations were 10 μM [γ-33P]ATP (3 mCi 33 P ATP/mmol ATP, Perkin Elmer) and 800 μM target peptide ([…]). Assays were carried out at 25° C. in the presence of 5 nM full-length ATR. An assay stock buffer solution was prepared containing all of the reagents listed above, with the exception of ATP and the test compound of interest. […] The plate was pre-incubated for 10 minutes at 25° C. and the reaction initiated by addition of 15 μL [γ-33P]ATP (final concentration 10 μM).
The reaction was stopped after […] by the addition of 30 μL 0.1M phosphoric acid containing 2 mM ATP. A multiscreen phosphocellulose filter 96-well plate (Millipore, Cat no. MAPHN0B50) was pretreated with 100 μL 0.2M phosphoric acid prior to the addition of 45 μL of the stopped assay mixture. The plate was washed with 5×200 μL 0.2M phosphoric acid.
After removing mean background values for all of the data points, Ki(app) data were calculated from non-linear regression analysis of the initial rate data using the Prism software package (GraphPad Prism version 3.0cx for Macintosh, GraphPad Software, San Diego Calif., USA).
Consider `Cc1ccc2nc(-c3nc(N4CCC(CO)CC4)cnc3N)[nH]c2c1` [Compound I-2, (1-(5-amino-6-(6-methyl-1H-benzo[d]imidazol-2-yl)pyrazin-2-yl)piperidin-4-yl)methanol], for which the Ki fell in the range of 1000 to 10000 nM.

As for `CN1CCC(C(=O)N2CC=C(c3cnc(N)c(-c4nc5ccccc5[nH]4)n3)CC2)CC1` [Compound I-78, (4-(5-amino-6-(1H-benzo[d]imidazol-2-yl)pyrazin-2-yl)-5,6-dihydropyridin-1(2H)-yl)(1-methylpiperidin-4-yl)methanone], the Ki fell in the range of 100 to 1000 nM.

Regarding `Cc1ccc2nc(-c3nc(N4CCC(C#N)CC4)cnc3N)[nH]c2c1` [Compound I-34, 1-(5-amino-6-(6-methyl-1H-benzo[d]imidazol-2-yl)pyrazin-2-yl)piperidine-4-carbonitrile], the Ki was 1000 to 10000 nM.

Take `CCS(=O)(=O)N1CC=C(c2cnc(N)c(C(=O)Nc3n[nH]c4ccccc34)n2)CC1` [Compound I-169, 3-amino-6-(1-(ethylsulfonyl)-1,2,3,6-tetrahydropyridin-4-yl)-N-(1H-indazol-3-yl)pyrazine-2-carboxamide]: the Ki was under 100 nM.

For the compound `CN(C)[C@@H]1CCN(C(=O)N2CC=C(c3cnc(N)c(-c4nc5ccccc5[nH]4)n3)CC2)C1` [Compound I-278, (R)-(4-(5-amino-6-(1H-benzo[d]imidazol-2-yl)pyrazin-2-yl)-5,6-dihydropyridin-1(2H)-yl)(3-(dimethylamino)pyrrolidin-1-yl)methanone], the Ki lay in the range of 100 to 1000 nM.

Regarding `COCC(=O)N1CCN(c2cnc(N)c(-c3nc4ccccc4[nH]3)n2)CC1` [Compound I-265, 1-(4-(5-amino-6-(1H-benzo[d]imidazol-2-yl)pyrazin-2-yl)piperazin-1-yl)-2-methoxyethanone], the Ki lay in the range of 1000 to 10000 nM.

For the compound `CCS(=O)(=O)N1CCN(c2cnc(N)c(-c3nc4ccccc4s3)n2)CC1` [Compound I-17, 3-(benzo[d]thiazol-2-yl)-5-(4-(ethylsulfonyl)piperazin-1-yl)pyrazin-2-amine], the Ki fell in the range of 100 to 1000 nM.

For the compound `Nc1ncc(C2=CCN(C(=O)N3CCCC3)CC2)nc1-c1nnc(-c2ccccc2)o1` [Compound I-226, (4-(5-amino-6-(5-phenyl-1,3,4-oxadiazol-2-yl)pyrazin-2-yl)-5,6-dihydropyridin-1(2H)-yl)(pyrrolidin-1-yl)methanone], the Ki was under 100 nM.

With `Nc1ncc(N2CCN(S(=O)(=O)Cc3ccccc3)CC2)nc1C(=O)Nc1ccccn1` [Compound I-253, 3-amino-6-(4-(benzylsulfonyl)piperazin-1-yl)-N-(pyridin-2-yl)pyrazine-2-carboxamide], the Ki was 100 to 1000 nM.

Regarding `CN(C)CC(=O)N1CCN(c2cnc(N)c(C(=O)Nc3ccccn3)n2)CC1` [Compound I-150, 3-amino-6-(4-(2-(dimethylamino)ethanoyl)piperazin-1-yl)-N-(pyridin-2-yl)pyrazine-2-carboxamide], the Ki was 1000 to 10000 nM.

Take `CCS(=O)(=O)N1CCN(c2cnc(N)c(-c3nc4ccccc4n3-c3ccccc3)n2)CC1` [Compound I-308, 5-(4-ethylsulfonylpiperazin-1-yl)-3-(1-phenylbenzimidazol-2-yl)pyrazin-2-amine]: the Ki lay within 100 to 1000 nM.

As for `CCNC1CC=C(c2cnc(N)c(-c3nnc(-c4ccccc4)o3)n2)CC1` (centres unmarked) [Compound I-314, 5-(4-(Ethylamino)cyclohex-1-enyl)-3-(5-phenyl-1,3,4-oxadiazol-2-yl)pyrazin-2-amine], the Ki fell in the range of 100 to 1000 nM.

As for `CN(C)S(=O)(=O)N1CCN(c2cnc(N)c(-c3nnc(-c4ccccc4)o3)n2)CC1` [Compound I-83, 4-(5-amino-6-(5-phenyl-1,3,4-oxadiazol-2-yl)pyrazin-2-yl)-N,N-dimethylpiperazine-1-sulfonamide], the Ki lay in the range of 100 to 1000 nM.

In the case of `Nc1ncc(N2CCN(S(=O)(=O)c3cccs3)CC2)nc1-c1nc2ccccc2[nH]1` [Compound I-104, 3-(1H-benzo[d]imidazol-2-yl)-5-(4-(thiophen-2-ylsulfonyl)piperazin-1-yl)pyrazin-2-amine], the Ki fell in the range of 100 to 1000 nM.

As for `CCC(CC)C(=O)N1CC=C(c2cnc(N)c(-c3nnc(-c4ccccc4)o3)n2)CC1` [Compound I-131, 1-(4-(5-amino-6-(5-phenyl-1,3,4-oxadiazol-2-yl)pyrazin-2-yl)-5,6-dihydropyridin-1(2H)-yl)-2-ethylbutan-1-one], the Ki is under 100 nM.

On to `Nc1ncc(-n2ccccc2=O)nc1-c1nc2ccccc2[nH]1` [Compound I-310, 1-(5-amino-6-(1H-benzo[d]imidazol-2-yl)pyrazin-2-yl)pyridin-2(1H)-one], for which the Ki was under 100 nM.

`CC#CCOC(=O)N1CC=C(c2cnc(N)c(-c3nnc(-c4ccccc4)o3)n2)CC1` [Compound I-115, but-2-ynyl 4-(5-amino-6-(5-phenyl-1,3,4-oxadiazol-2-yl)pyrazin-2-yl)-5,6-dihydropyridine-1(2H)-carboxylate]: the Ki is under 100 nM.

With `CCNC(=O)C1CC1c1cnc(N)c(-c2nnc(-c3ccc(CNC)cc3)o2)n1` (centres unmarked) [Compound I-375, 2-[5-Amino-6-[5-[4-(methylaminomethyl)phenyl]-1,3,4-oxadiazol-2-yl]pyrazin-2-yl]-N-ethyl-cyclopropanecarboxamide], the Ki was in the range of 100 to 1000 nM.

On to `Nc1ncc(N2C[C@@H]3CCC(O)[C@@H]3C2)nc1-c1nnc(-c2ccccc2)o1` (stereo in doubt) [Compound I-318, (3aR,6aS)-2-[5-Amino-6-(5-phenyl-1,3,4-oxadiazol-2-yl)pyrazin-2-yl]-3,3a,4,5,6,6a-hexahydro-1H-cyclopenta[c]pyrrol-6-ol], for which the Ki was under 100 nM.

For the compound `Cc1ccc2nc(-c3nc(C4=CCC5(CC4)OCCO5)cnc3N)[nH]c2c1` [Compound I-22, 3-(6-methyl-1H-benzo[d]imidazol-2-yl)-5-(1,4-dioxaspiro[4.5]dec-7-en-8-yl)pyrazin-2-amine], the Ki lay in the range of 100 to 1000 nM.

Take `Nc1ncc(C2=CCN(C(=O)C3CCC3)CC2)nc1-c1nc2ccccc2[nH]1` [Compound I-200, (4-(5-amino-6-(1H-benzo[d]imidazol-2-yl)pyrazin-2-yl)-5,6-dihydropyridin-1(2H)-yl)(cyclobutyl)methanone]: the Ki is under 100 nM.

As to `Nc1ncc(N2CCN(CCO)CC2)nc1-c1nnc(-c2ccccc2)o1` [Compound I-306, 2-[4-[5-amino-6-(5-phenyl-1,3,4-oxadiazol-2-yl)pyrazin-2-yl]piperazin-1-yl]ethanol], the Ki lay in the range of 1000 to 10000 nM.

Take `Nc1ncc(N2CC[C@H](NC(=O)c3ccccc3)C2)nc1-c1nc2ccccc2[nH]1` [Compound I-108, (S)-N-(1-(5-amino-6-(1H-benzo[d]imidazol-2-yl)pyrazin-2-yl)pyrrolidin-3-yl)benzamide]: the Ki is 100 to 1000 nM.

In the case of `COCCOCC(=O)N[C@H]1CCN(c2cnc(N)c(-c3nc4ccccc4[nH]3)n2)C1` [Compound I-181, (S)-N-(1-(5-amino-6-(1H-benzo[d]imidazol-2-yl)pyrazin-2-yl)pyrrolidin-3-yl)-2-(2-methoxyethoxy)ethanamide], the Ki fell in the range of 1000 to 10000 nM.

Turning to `COCCOC(=O)N1CCN(c2cnc(N)c(C(=O)Nc3ccccn3)n2)CC1` [Compound I-237, 2-methoxyethyl 4-(5-amino-6-(pyridin-2-ylcarbamoyl)pyrazin-2-yl)piperazine-1-carboxylate], the Ki lay in the range of 1000 to 10000 nM.

`Nc1ncc(N2CCN(C(=O)c3ccccc3)CC2)nc1C(=O)Nc1ccccn1` [Compound I-109, 3-amino-6-(4-(phenylcarbonyl)piperazin-1-yl)-N-(pyridin-2-yl)pyrazine-2-carboxamide]: the Ki fell in the range of 1000 to 10000 nM.

Consider `Nc1ncc(C2=CCN(S(=O)(=O)C3CC3)CC2)nc1-c1nc2ccccc2[nH]1` [Compound I-93, 3-(1H-benzo[d]imidazol-2-yl)-5-(1-(cyclopropylsulfonyl)-1,2,3,6-tetrahydropyridin-4-yl)pyrazin-2-amine], for which the Ki was under 100 nM.

As for `COCCOCC(=O)N1CC=C(c2cnc(N)c(-c3nc4ccccc4[nH]3)n2)CC1` [Compound I-140, 1-(4-(5-amino-6-(1H-benzo[d]imidazol-2-yl)pyrazin-2-yl)-5,6-dihydropyridin-1(2H)-yl)-2-(2-methoxyethoxy)ethanone], the Ki lay in the range of 100 to 1000 nM.

`Nc1ncc(N2CCN(S(=O)(=O)c3ccsc3)CC2)nc1-c1nc2ccccc2[nH]1` [Compound I-80, 3-(1H-benzo[d]imidazol-2-yl)-5-(4-(thiophen-3-ylsulfonyl)piperazin-1-yl)pyrazin-2-amine]: the Ki was in the range of 100 to 1000 nM.

As to `CNCc1ccc(-c2nnc(-c3nc(N4C[C@@H]5C(C(=O)N(C)C)[C@@H]5C4)cnc3N)o2)cc1` (stereo partly drawn) [Compound I-351, (1R,5S)-3-[5-Amino-6-[5-[4-(methylaminomethyl)phenyl]-1,3,4-oxadiazol-2-yl]pyrazin-2-yl]-N,N-dimethyl-3-azabicyclo[3.1.0]hexane-6-carboxamide], the Ki was in the range of 100 to 1000 nM.

As for `CCS(=O)(=O)N1CCN(c2cnc(N)c(-c3nnc(-c4ccccc4)o3)n2)CC1` [Compound I-18, 5-(4-(ethylsulfonyl)piperazin-1-yl)-3-(5-phenyl-1,3,4-oxadiazol-2-yl)pyrazin-2-amine], the Ki was under 100 nM.

Turning to `Nc1ncc(N2C[C@@H]3CCC(=O)[C@@H]3C2)nc1-c1nnc(-c2ccccc2)o1` [Compound I-319, (3aS,6aR)-2-(5-Amino-6-(5-phenyl-1,3,4-oxadiazol-2-yl)pyrazin-2-yl)hexahydrocyclopenta[c]pyrrol-4(5H)-one], the Ki lay in the range of 100 to 1000 nM.
